Laboratory results as given in patent publication US11584765B2 (priority 2017, dated 2023).

Tested on: C57BL/6 mice
Experiment: animal or person
Assay type: in vivo
Details: Mus musculus, sc, 0.5 h, s.c. administration, 30 min, 55° C. water, read-out: ED50 (mg/kg) at 30 min on C57BL/6 mice in Warm-water Tail-flick Test

`Cc1nc(CN2CCC(CCc3ccccc3)(C3CCCCO3)C2)cs1` (stereo not shown) [Compound 211, 2-methyl-4-((3-phenethyl-3-(tetrahydro-2H-pyran-2-yl)pyrrolidin-1-yl)methyl)thiazole] gave an ED50 greater than 10 mg/kg.

Work on `c1ccc(CCC2(C3CCCO3)CCN(Cc3cn[nH]c3)C2)cc1` (stereo not shown) [Compound 212, 4-((3-phenethyl-3-(tetrahydrofuran-2-yl)pyrrolidin-1-yl)methyl)-1H-pyrazole] yielded an ED50 greater than 10 mg/kg.

For `Cn1ccc(CN2CCC(CCc3ccccc3)(C3CCCO3)C2)n1` (stereo not shown) [Compound 214, 1-methyl-3-((3-phenethyl-3-(tetrahydrofuran-2-yl)pyrrolidin-1-yl)methyl)-1H-pyrazole], the ED50 was greater than 10 mg/kg.

Work on `Cn1nccc1CN1CCC(CCc2ccccc2)(C2CCCO2)C1` (stereo not drawn) [Compound 215, l-methyl-5-((3-phenethyl-3-(tetrahydrofuran-2-yl)pyrrolidin-1-yl)methyl)-1H-pyrazole] yielded an ED50 of less than 10 mg/kg.

With `CC(=O)Nc1ccc(CN2CCC(CCc3ccccc3)(C3OCC=C3C)C2)cc1` (stereo not shown) [Compound 216, N-(4-((3-(3-methyl-2,5-dihydrofuran-2-yl)-3-phenethylpyrrolidin-1-yl)methyl)phenyl)acetamide] the ED50 was less than 10 mg/kg.

`CCOCC1(CCc2ccccc2)CCN(Cc2cnn(C)c2)C1` (stereo not shown) [Compound 217, 4-((3-(ethoxymethyl)-3-phenethylpyrrolidin-1-yl)methyl)-1-methyl-1H-pyrazole] was tested, and the ED50 was less than 10 mg/kg.

Work on `c1ccc(CCC2(C3CCCO3)CCN(Cc3cccc(-c4ccco4)c3)C2)cc1` (stereo not shown) [Compound 219] yielded an ED50 greater than 10 mg/kg.

Work on `c1ccc(CCC2(C3CCCO3)CCN(Cc3ccc(-c4ccco4)cc3)C2)cc1` (stereo not shown) [Compound 220] yielded an ED50 greater than 10 mg/kg.

`Cn1cncc1CN1CCC(CCc2ccccc2)(C2CCCO2)C1` (stereo not shown) [Compound 221, 1-methyl-5-((3-phenethyl-3-(tetrahydrofuran-2-yl)pyrrolidin-1-yl)methyl)-1H-imidazole] showed an ED50 greater than 10 mg/kg.

Molecule `Cn1ccnc1CN1CCC(CCc2ccccc2)(C2CCCO2)C1` (stereo not drawn) [Compound 222, l-methyl-2-((3-phenethyl-3-(tetrahydrofuran-2-yl)pyrrolidin-1-yl)methyl)-1H-imidazole] has an ED50 greater than 10 mg/kg.

Work on `COc1ccsc1CN1CCC(CCc2ccccc2)(C2CCCO2)C1` (stereo not shown) [Compound 223, 1-((3-methoxythiophen-2-yl)methyl)-3-phenethyl-3-(tetrahydrofuran-2-yl)pyrrolidine] yielded an ED50 greater than 10 mg/kg.

`Cn1ccc(CN2CCC(CCc3ccccc3)(C3CCCO3)C2)c1` (stereo not shown) [Compound 224, 1-methyl-3-((3-phenethyl-3-(tetrahydrofuran-2-yl)pyrrolidin-1-yl)methyl)-1H-pyrrole] gave an ED50 greater than 10 mg/kg.

With `c1ccc(CCC2(C3CCCO3)CCN(Cc3ccccn3)C2)cc1` (stereo not shown) [Compound 225, 2-((3-phenethyl-3-(tetrahydrofuran-2-yl)pyrrolidin-1-yl)methyl)pyridine] the ED50 was greater than 10 mg/kg.

With `c1ccc(CCC2(C3CCCO3)CCN(Cc3cccnc3)C2)cc1` (stereo not shown) [Compound 226, 3-((3-phenethyl-3-(tetrahydrofuran-2-yl)pyrrolidin-1-yl)methyl)pyridine] the ED50 was less than 10 mg/kg.

In the case of `Cn1cccc1CN1CCC(CCc2ccccc2)(C2CCCO2)C1` (stereo not shown) [Compound 227, 1-methyl-2-((3-phenethyl-3-(tetrahydrofuran-2-yl)pyrrolidin-1-yl)methyl)-1H-pyrrole], the ED50 is reported as greater than 10 mg/kg.

`c1ccc(CCC2(C3CCCO3)CCN(Cc3ccnn3-c3ccccc3)C2)cc1` (stereo not shown) [Compound 228, 5-((3-phenethyl-3-(tetrahydrofuran-2-yl)pyrrolidin-1-yl)methyl)-1-phenyl-1H-pyrazole] was tested, and the ED50 was greater than 10 mg/kg.

Molecule `c1ccc(CCC2(C3CCCO3)CCN(CC3CCCO3)C2)cc1` (stereo not shown) [Compound 229, 3-phenethyl-3-(tetrahydrofuran-2-yl)-1-((tetrahydrofuran-2-yl)methyl)pyrrolidine] has an ED50 greater than 10 mg/kg.

Work on `c1ccc(CCC2(C3CCCO3)CCN(CC3CCOC3)C2)cc1` (stereo not shown) [Compound 230, 3-phenethyl-3-(tetrahydrofuran-2-yl)-1-((tetrahydrofuran-3-yl)methyl)pyrrolidine] yielded an ED50 greater than 10 mg/kg.

`Cc1ncc(CN2CCC(CCc3ccccc3)(C3CCCO3)C2)s1` (stereo not shown) [Compound 231, 2-methyl-5-((3-phenethyl-3-(tetrahydrofuran-2-yl)pyrrolidin-1-yl)methyl)thiazole] showed an ED50 of less than 10 mg/kg.

Work on `CCOCC1(CCc2ccsc2)CCN(Cc2cnn(C)c2)CC1` [Compound 232, 4-(ethoxymethyl)-1-((1-methyl-1H-pyrazol-4-yl)methyl)-4-(2-(thiophen-3-yl)ethyl)piperidine] yielded an ED50 of less than 10 mg/kg.

Work on `CCOCC1(CCc2cccs2)CCN(Cc2cnn(C)c2)CC1` [Compound 233, 4-(ethoxymethyl)-1-((1-methyl-1H-pyrazol-4-yl)methyl)-4-(2-(thiophen-2-yl)ethyl)piperidine] yielded an ED50 of less than 10 mg/kg.

Work on `CCOC[C@]1(CCc2ccccc2)CCN(Cc2cnn(C)c2)C1` [Compound 234, (R)-4-((3-(ethoxymethyl)-3-phenethylpyrrolidin-1-yl)methyl)-1-methyl-1H-pyrazole] yielded an ED50 greater than 10 mg/kg.

In the case of `CCOC[C@@]1(CCc2ccccc2)CCN(Cc2cnn(C)c2)C1` [Compound 235, (S)-4-((3-(ethoxymethyl)-3-phenethylpyrrolidin-1-yl)methyl)-1-methyl-1H-pyrazole], the ED50 is reported as less than 10 mg/kg.

For `c1ccc(CCC2(C3CCCO3)CCN(Cc3ccncc3)C2)cc1` (stereo not shown) [Compound 236, 4-((3-phenethyl-3-(tetrahydrofuran-2-yl)pyrrolidin-1-yl)methyl)pyridine], the ED50 was greater than 10 mg/kg.

`c1ccc(CCC2(C3CCCO3)CCN(Cc3cncnc3)C2)cc1` (stereo not shown) [Compound 237, 5-((3-phenethyl-3-(tetrahydrofuran-2-yl)pyrrolidin-1-yl)methyl)pyrimidine] showed an ED50 greater than 10 mg/kg.

In the case of `c1ccc(CCC2(C3CCCO3)CCN(Cc3cnccn3)C2)cc1` (stereo not shown) [Compound 238, 2-((3-phenethyl-3-(tetrahydrofuran-2-yl)pyrrolidin-1-yl)methyl)pyrazine], the ED50 is reported as greater than 10 mg/kg.

`CC(=O)Nc1ccc(CN2CCC(CCc3ccccc3)(COCc3ccccc3)C2)cc1` (stereo not shown) [Compound 239, N-(4-((3-(benzyloxymethyl)-3-phenethylpyrrolidin-1-yl)methyl)phenyl)acetamide] showed an ED50 greater than 10 mg/kg.

For `Cn1cc(CN2CCC(CCc3ccccc3)(COCc3ccccc3)C2)cn1` (stereo not shown) [Compound 240, 4-((3-(benzyloxymethyl)-3-phenethylpyrrolidin-1-yl)methyl)-1-methyl-1H-pyrazole], the ED50 was greater than 10 mg/kg.

Work on `Fc1cncc(CN2CCC(CCc3ccccc3)(C3CCCO3)C2)c1` (stereo not shown) [Compound 241, 3-fluoro-5-((3-phenethyl-3-(tetrahydrofuran-2-yl)pyrrolidin-1-yl)methyl)pyridine] yielded an ED50 greater than 10 mg/kg.

In the case of `COc1cncc(CN2CCC(CCc3ccccc3)(C3CCCO3)C2)c1` (stereo not shown) [Compound 242, 3-methoxy-5-((3-phenethyl-3-(tetrahydrofuran-2-yl)pyrrolidin-1-yl)methyl)pyridine], the ED50 is reported as greater than 10 mg/kg.

With `Clc1cncc(CN2CCC(CCc3ccccc3)(C3CCCO3)C2)c1` (stereo not shown) [Compound 243, 3-chloro-5-((3-phenethyl-3-(tetrahydrofuran-2-yl)pyrrolidin-1-yl)methyl)pyridine] the ED50 was greater than 10 mg/kg.

With `CCOCC1(CCc2ccccc2)CCN(Cc2cccnc2)CC1` [Compound 244, 3-((4-(ethoxymethyl)-4-phenethylpiperidin-1-yl)methyl)pyridine] the ED50 was less than 10 mg/kg.

In the case of `CCOCC1(CCc2ccccc2)CCN(Cc2cnn(C)c2)CC1` [Compound 245, 4-(ethoxymethyl)-1-((1-methyl-1H-pyrazol-4-yl)methyl)-4-phenethylpiperidine], the ED50 is reported as less than 10 mg/kg.

Molecule `CCOCC1(CCc2ccccc2)CCN(Cc2ccnn2C)CC1` [Compound 246, 4-(ethoxymethyl)-1-((1-methyl-1H-pyrazol-5-yl)methyl)-4-phenethylpiperidine] has an ED50 greater than 10 mg/kg.

Work on `CCOCC1(CCc2cccs2)CCN(Cc2cccnc2)CC1` [Compound 247, 3-((4-(ethoxymethyl)-4-(2-(thiophen-2-yl)ethyl)piperidin-1-yl)methyl)pyridine] yielded an ED50 of less than 10 mg/kg.

For `c1ccc(CCC2(C3CCCO3)CCN(CCc3cccnc3)C2)cc1` (stereo not shown) [Compound 248, 3-(2-(3-phenethyl-3-(tetrahydrofuran-2-yl)pyrrolidin-1-yl)ethyl)pyridine], the ED50 was greater than 10 mg/kg.

`CCOCC1(CCc2ccccc2)CCN(Cc2cccnc2)C1` (stereo not shown) [Compound 249, 3-((3-(ethoxymethyl)-3-phenethylpyrrolidin-1-yl)methyl)pyridine] showed an ED50 of less than 10 mg/kg.

Molecule `CCOCC1(CCc2ccsc2)CCN(Cc2cnn(C)c2)C1` (stereo not drawn) [Compound 250, 4-((3-(ethoxymethyl)-3-(2-(thiophen-3-yl)ethyl)pyrrolidin-l-yl)methyl)-1-methyl-1H-pyrazole] has an ED50 of less than 10 mg/kg.

Molecule `CCOCC1(CCc2cccs2)CCN(Cc2cccnc2)C1` (stereo not shown) [Compound 251, 3-((3-(ethoxymethyl)-3-(2-(thiophen-2-yl)ethyl)pyrrolidin-1-yl)methyl)pyridine] has an ED50 of less than 10 mg/kg.

`CCOCC1(CCc2ccsc2)CCN(Cc2cccnc2)C1` (stereo not shown) [Compound 252] gave an ED50 of less than 10 mg/kg.

`CCOCC1(CCc2ccsc2)CCN(Cc2cnc(C)s2)C1` (stereo not drawn) [Compound 253, 5-((3-(ethoxymethyl)-3-(2-(thiophen-3-yl)ethyl)pyrrolidin-l-yl)methyl)-2-methylthiazole] showed an ED50 greater than 10 mg/kg.

With `CCOCC1(CCc2cccs2)CCN(Cc2cnc(C)s2)CC1` [Compound 254] the ED50 was greater than 10 mg/kg.

With `CCOCC1(CCc2ccsc2)CCN(Cc2cnc(C)s2)CC1` [Compound 255, 5-((4-(ethoxymethyl)-4-(2-(thiophen-3-yl)ethyl)piperidin-1-yl)methyl)-2-methylthiazole] the ED50 was greater than 10 mg/kg.

`CCOCC1(CCc2cccs2)CCN(Cc2cnn(CC)c2)CC1` [Compound 256, 4-(ethoxymethyl)-1-((l-ethyl-1H-pyrazol-4-yl)methyl)-4-(2-(thiophen-2-yl)ethyl)piperidine] was tested, and the ED50 was less than 10 mg/kg.

With `Cc1cncc(CN2CCC(CCc3ccccc3)(C3CCCO3)C2)c1` (stereo not shown) [Compound 257, 3-methyl-5-((3-phenethyl-3-(tetrahydrofuran-2-yl)pyrrolidin-1-yl)methyl)pyridine] the ED50 was less than 10 mg/kg.

Molecule `Cc1ccncc1CN1CCC(CCc2ccccc2)(C2CCCO2)C1` (stereo not shown) [Compound 262, 4-methyl-3-((3-phenethyl-3-(tetrahydrofuran-2-yl)pyrrolidin-1-yl)methyl)pyridine] has an ED50 greater than 10 mg/kg.
